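Exposure lasted 48 hours, with cells grown in 96-well plates and compounds tested at five concentrations. At the GI50, growth is halved.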 Active and inactive are the calls of the source. Rule as the data show it: active = GI50 up to about 1.1 µM and inactive = higher.
What was measured:
Assay in all cases: NCI-60 cell line screen, 48 h
786-0 = tested on: 786-0
A498 = tested on: A498
A549 = tested on: A549
ACHN = tested on: ACHN
BT-549 = tested on: BT-549
CAKI-1 = tested on: CAKI-1
COLO 205 = tested on: COLO 205
DU-145 = tested on: DU-145
EKVX = tested on: EKVX
HCC 2998 = tested on: HCC 2998
HCT-116 = tested on: HCT-116
HCT-15 = tested on: HCT-15
HL-60 = tested on: HL-60
HOP-62 = tested on: HOP-62
HOP-92 = tested on: HOP-92
HT-29 = tested on: HT-29
Hs-578T = tested on: Hs-578T
IGROV-1 = tested on: IGROV-1
K562 = tested on: K562
LOX IMVI = tested on: LOX IMVI
M14 = tested on: M14
MCF7 = tested on: MCF7
MDA-MB-231 = tested on: MDA-MB-231
MDA-MB-435 = tested on: MDA-MB-435
MDA-N = tested on: MDA-N
MOLT-4 = tested on: MOLT-4
Malme-3M = tested on: Malme-3M
NCI-H226 = tested on: NCI-H226
NCI-H23 = tested on: NCI-H23
NCI-H460 = tested on: NCI-H460
NCI-H522 = tested on: NCI-H522
NCI/ADR-RES = tested on: NCI/ADR-RES
OVCAR-3 = tested on: OVCAR-3
OVCAR-4 = tested on: OVCAR-4
OVCAR-5 = tested on: OVCAR-5
OVCAR-8 = tested on: OVCAR-8
PC-3 = tested on: PC-3
RPMI-8226 = tested on: RPMI-8226
RXF 393 = tested on: RXF 393
SF-268 = tested on: SF-268
SF-295 = tested on: SF-295
SF-539 = tested on: SF-539
SK-MEL-28 = tested on: SK-MEL-28
SK-MEL-2 = tested on: SK-MEL-2
SK-MEL-5 = tested on: SK-MEL-5
SK-OV-3 = tested on: SK-OV-3
SN12C = tested on: SN12C
SNB-19 = tested on: SNB-19
SNB-75 = tested on: SNB-75
SR = tested on: SR
SW-620 = tested on: SW-620
T47D = tested on: T47D
TK-10 = tested on: TK-10
U-251 = tested on: U-251
UACC-257 = tested on: UACC-257
UO-31 = tested on: UO-31
CCRF-CEM = tested on: CCRF-CEM
KM12 = tested on: KM12
UACC-62 = tested on: UACC-62

COC(=O)/C(C#N)=C(\Nc1ccccc1)N1CCCC1
GI50 (786-0): > 100 µM (inactive)
GI50 (A498): > 100 µM (inactive)
GI50 (A549): > 100 µM (inactive)
GI50 (ACHN): > 100 µM (inactive)
GI50 (BT-549): > 100 µM (inactive)
GI50 (CAKI-1): > 100 µM (inactive)
GI50 (COLO 205): > 100 µM (inactive)
GI50 (DU-145): > 100 µM (inactive)
GI50 (EKVX): > 100 µM (inactive)
GI50 (HCC 2998): > 100 µM (inactive)
GI50 (HCT-116): > 100 µM (inactive)
GI50 (HCT-15): > 100 µM
GI50 (HL-60): > 100 µM (inactive)
GI50 (HOP-62): > 100 µM (inactive)
GI50 (HOP-92): > 100 µM (inactive)
GI50 (HT-29): > 100 µM (inactive)
GI50 (Hs-578T): > 100 µM (inactive)
GI50 (IGROV-1): > 100 µM (inactive)
GI50 (K562): > 100 µM (inactive)
GI50 (LOX IMVI): > 100 µM (inactive)
GI50 (M14): > 100 µM (inactive)
GI50 (MCF7): > 100 µM (inactive)
GI50 (MDA-MB-231): > 100 µM (inactive)
GI50 (MDA-MB-435): > 100 µM (inactive)
GI50 (MDA-N): > 100 µM (inactive)
GI50 (MOLT-4): > 100 µM (inactive)
GI50 (Malme-3M): > 100 µM (inactive)
GI50 (NCI-H226): > 100 µM (inactive)
GI50 (NCI-H23): > 100 µM (inactive)
GI50 (NCI-H460): > 100 µM (inactive)
GI50 (NCI-H522): > 100 µM (inactive)
GI50 (NCI/ADR-RES): > 100 µM (inactive)
GI50 (OVCAR-3): > 100 µM (inactive)
GI50 (OVCAR-4): > 100 µM (inactive)
GI50 (OVCAR-5): > 100 µM (inactive)
GI50 (OVCAR-8): > 100 µM (inactive)
GI50 (PC-3): > 100 µM (inactive)
GI50 (RPMI-8226): > 100 µM (inactive)
GI50 (RXF 393): > 100 µM (inactive)
GI50 (SF-268): > 100 µM (inactive)
GI50 (SF-295): > 100 µM (inactive)
GI50 (SF-539): > 100 µM (inactive)
GI50 (SK-MEL-28): > 100 µM (inactive)
GI50 (SK-MEL-2): > 100 µM (inactive)
GI50 (SK-MEL-5): > 100 µM (inactive)
GI50 (SK-OV-3): > 100 µM (inactive)
GI50 (SN12C): > 100 µM (inactive)
GI50 (SNB-19): > 100 µM (inactive)
GI50 (SNB-75): > 100 µM (inactive)
GI50 (SR): > 100 µM (inactive)
GI50 (SW-620): > 100 µM (inactive)
GI50 (T47D): > 100 µM (inactive)
GI50 (TK-10): > 100 µM (inactive)
GI50 (U-251): > 100 µM (inactive)
GI50 (UACC-257): > 100 µM (inactive)
GI50 (UO-31): > 100 µM (inactive)

CC1=NN(c2nc(N)nc(/C(C#N)=C/c3ccccc3O)n2)C(C)(C)C1
GI50 (786-0): 15.7 µM (inactive)
GI50 (A498): 24.7 µM (inactive)
GI50 (A549): 15.9 µM (inactive)
GI50 (ACHN): 18.5 µM (inactive)
GI50 (BT-549): 36.2 µM (inactive)
GI50 (CAKI-1): 19.6 µM (inactive)
GI50 (CCRF-CEM): 18 µM (inactive)
GI50 (COLO 205): 17.4 µM (inactive)
GI50 (DU-145): 15.4 µM (inactive)
GI50 (EKVX): 16 µM (inactive)
GI50 (HCC 2998): 19.5 µM (inactive)
GI50 (HCT-116): 18.3 µM (inactive)
GI50 (HCT-15): 19.4 µM
GI50 (HL-60): 30.3 µM (inactive)
GI50 (HOP-62): 20.5 µM (inactive)
GI50 (HOP-92): 20.1 µM (inactive)
GI50 (HT-29): 19.8 µM (inactive)
GI50 (Hs-578T): 16.3 µM (inactive)
GI50 (IGROV-1): 23.1 µM (inactive)
GI50 (K562): 51.5 µM (inactive)
GI50 (KM12): 15.8 µM (inactive)
GI50 (M14): 20.8 µM (inactive)
GI50 (MCF7): 24.8 µM (inactive)
GI50 (MDA-MB-231): 19.9 µM (inactive)
GI50 (MDA-MB-435): 17.3 µM (inactive)
GI50 (MDA-N): 15.3 µM (inactive)
GI50 (MOLT-4): 30.4 µM (inactive)
GI50 (Malme-3M): 18.7 µM (inactive)
GI50 (NCI-H226): 17.3 µM (inactive)
GI50 (NCI-H23): 16.8 µM (inactive)
GI50 (NCI-H460): 19.4 µM (inactive)
GI50 (NCI-H522): 19.8 µM (inactive)
GI50 (NCI/ADR-RES): 21.4 µM (inactive)
GI50 (OVCAR-3): 14.7 µM (inactive)
GI50 (OVCAR-4): 19 µM (inactive)
GI50 (OVCAR-5): 15.4 µM (inactive)
GI50 (OVCAR-8): 26.5 µM (inactive)
GI50 (PC-3): 16 µM (inactive)
GI50 (RPMI-8226): 17 µM (inactive)
GI50 (RXF 393): 20.2 µM (inactive)
GI50 (SF-268): 18.2 µM (inactive)
GI50 (SF-295): 15.6 µM (inactive)
GI50 (SF-539): 16.9 µM (inactive)
GI50 (SK-MEL-28): 16.7 µM (inactive)
GI50 (SK-MEL-2): 22.2 µM (inactive)
GI50 (SK-MEL-5): 15.5 µM (inactive)
GI50 (SK-OV-3): 23.1 µM (inactive)
GI50 (SN12C): 25.5 µM (inactive)
GI50 (SNB-19): 25.5 µM (inactive)
GI50 (SR): 35.9 µM (inactive)
GI50 (T47D): 15.7 µM (inactive)
GI50 (TK-10): 26.7 µM (inactive)
GI50 (U-251): 18.4 µM (inactive)
GI50 (UACC-257): 18.9 µM (inactive)
GI50 (UACC-62): 17.1 µM (inactive)
GI50 (UO-31): 18.8 µM (inactive)
